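A five-concentration, 48-hour dose response in 96-well plates underlies each endpoint, interpolated linearly between surrounding concentrations. GI50 marks 50% less growth. TGI: concentration producing complete growth inhibition.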
What was measured:
Assay in all cases: NCI anticancer screen, dose series, 48 h
HOP-62 NSCLC = tested on: HOP-62 NSCLC
MDA-MB-231 breast = tested on: MDA-MB-231 breast
NCI-H522 lung = tested on: NCI-H522 lung
PC-3 prostate = tested on: PC-3 prostate
SF-268 CNS = tested on: SF-268 CNS
SF-295 CNS = tested on: SF-295 CNS
SK-MEL-28 melanoma = tested on: SK-MEL-28 melanoma
SNB-75 CNS = tested on: SNB-75 CNS
T-47D breast = tested on: T-47D breast
UACC-257 melanoma = tested on: UACC-257 melanoma

Compound | TGI (HOP-62 NSCLC) [µM] | TGI (MDA-MB-231 breast) [µM] | TGI (NCI-H522 lung) [µM] | TGI (PC-3 prostate) [µM] | TGI (SF-268 CNS) [µM] | TGI (SF-295 CNS) [µM] | TGI (SK-MEL-28 melanoma) [µM] | TGI (SNB-75 CNS) [µM] | TGI (T-47D breast) [µM] | TGI (UACC-257 melanoma) [µM] | GI50 (HOP-62 NSCLC) [µM] | GI50 (MDA-MB-231 breast) [µM] | GI50 (NCI-H522 lung) [µM] | GI50 (PC-3 prostate) [µM] | GI50 (SF-268 CNS) [µM] | GI50 (SF-295 CNS) [µM] | GI50 (SK-MEL-28 melanoma) [µM] | GI50 (SNB-75 CNS) [µM] | GI50 (T-47D breast) [µM] | GI50 (UACC-257 melanoma) [µM]
c1ccc(CCCNc2nnnc3ccccc23)cc1 | > 100 | > 100 | > 100 | > 100 | > 100 | > 100 | > 100 | > 100 | 83 | > 100 |  |  |  |  |  |  |  |  |  | 
Fc1c[c-]c(-c2ccccn2)c(F)c1.[CH3-].[Pt+2].c1ccc([PH+](c2ccccc2)c2ccccn2)cc1 | 44.2 | 3.31 | 8.18 | 3.89 | 5.18 | 62.5 | 3.15 | 9.9 | 5.78 | 5.07 | 4.16 | 1.61 | 1.94 | 1.41 | 1.89 | 4.91 | 1.64 | 1.03 | 1.13 | 1.67
CCCCCCCCCCCCOC1C(CNCC2OC3OC(C)(C)OC3C2NC(=O)Nc2ccc(C(F)(F)F)cc2)OC2OC(C)(C)OC21 (stereo not given) | 15.1 | 7.37 | 9.21 | 13.2 | 16.6 | 17.9 | 14.5 | 13.4 | 16.9 | 17.9 | 8.1 | 2.94 | 3.96 | 6.68 | 7.93 | 9 | 7.28 | 6.04 | 7.31 | 8.62
CN(C)CCN1C(=O)c2cccc3c(N)ccc(c23)C1=O | > 25 | > 25 | > 25 | > 25 | > 25 | > 25 | > 25 | > 25 | > 25 | > 25 | 22.9 | 16 | 7.12 | 13.5 | 15 | 10 | 11.9 | > 25 | 17 | 11.2
Cc1cc(C(=O)N[C@@H](CCC(=O)O)C(=O)O)sc1CC[C@@H]1CNc2nc(N)[nH]c(=O)c2C1 | > 100 | > 100 | > 100 | > 100 | > 100 | > 100 | > 100 | > 100 | > 100 | > 100 | 0.0496 | 5.56 | 0.0322 | < 0.01 | 0.0372 | 0.0496 | 0.0377 | 0.252 | 0.0825 | 0.0559
C[n+]1c2cc(N)ccc2cc2ccc(N)cc21 (tested in a mixture with another compound) | 5.37 | 2.5 | 0.839 | 12.9 | 1.29 | 4.62 | 7.48 | 1.38 | 3.02 | 2.04 | 0.63 | 0.618 | 0.217 | 0.332 | 0.265 | 0.809 | 1.33 | 0.314 | 0.33 | 0.337
C[C@@H]1[C@H]2[C@H](C=C3[C@@H]4CC[C@H]5Cc6nc7c(nc6C[C@]5(C)[C@H]4C[C@@H](O)[C@@]32C)C[C@@H]2CC[C@H]3C4=C[C@@H]5O[C@@]6(CC[C@](C)(CO)O6)[C@@H](C)[C@@]5(O)[C@@]4(C)[C@H](O)C[C@@H]3[C@@]2(C)C7)O[C@]12CCC(C)(C)O2 | 5.73 | 2.62 | 11.8 | 6.76 | 31.6 | 0.259 | 21.3 | 9.54 | > 41.8 | 99.2 | 0.861 | 0.469 | 2.26 | 0.391 | 0.756 | 0.0698 | 0.518 | 0.14 | 0.405 | 13.9
CCN1/C(=C/C=C/C=C/c2sc3ccccc3[n+]2CC)Sc2ccccc21 | 1.54 | 1.48 | 1.51 | 1.39 | 1.62 | 0.508 | 2.75 | 1.47 | 0.669 | 2.94 | 0.42 | 0.302 | 0.281 | 0.243 | 0.431 | 0.153 | 0.72 | 0.243 | 0.101 | 0.475
COc1cc2cn3c4ccc(O)cc4nc(N)c3c2cc1OC | 7.67 | 15.6 | 1.91 | 14.7 | 15.1 | 11.5 | 15.8 | 7.49 | 16.4 | 6.94 | 0.375 | 2 | 0.0713 | 0.474 | 0.149 | 0.265 | 0.0518 | 0.0886 | 0.435 | 1.39
O=C(CCc1ccco1)NC1CCN(CC2(c3ccc(Cl)cc3)CCC2)CC1 | 32.7 | 20.1 | 30 | 31.1 | 30.7 | 30.1 | 29.1 | 21.7 | 46.6 | 31.2 | 16.3 | 5.79 | 14.6 | 14.1 | 15.1 | 15.5 | 15.3 | 10 | 16.2 | 16.3
Clc1ccccc1-c1nc(-c2ccncc2)no1 | > 100 | > 100 | > 100 | > 100 | > 100 | > 100 | > 100 | > 100 | > 100 | > 100 |  |  |  |  |  |  |  |  |  | 
Cc1ccc(Nc2[nH]c(C(=O)c3ccc(Cl)cc3)c(N)c2C(=S)Nc2ccccc2)nc1 | > 100 | 64.7 | 73.2 | > 100 | > 100 | 67.3 | > 100 | > 100 | > 100 | > 100 | 35.9 | 21.4 | 24 | 26.5 | 32.7 | 21.5 | 55.2 | 79.3 | 29.8 | 33.3
COc1ccc2c(c1)C(=O)c1c-2c(OCCN(C)C)nc2cc(OC)ccc12 | 8.04 | 3.88 | 2.66 | 3.69 | 2.84 | 11.5 | 4.19 | 9.02 | 21.8 | 9.96 | 2.02 | 1.42 | 0.75 | 1.24 | 1.12 | 2.22 | 2.08 | 1.99 | 6.1 | 3.19
CSC1=Nc2c(c(C)c(-c3ccccc3)n2CCCCl)C2=NC(=O)CN12 | 63.1 | 23.8 | 19.2 | > 100 | 47.6 | 26.8 | 25.4 | 11.6 | 10.9 | 28.4 | 11 | 5.64 | 3.86 | 8.68 | 8.57 | 4.11 | 10.2 | 2.83 | 2.63 | 12.5
O=c1c2[nH]c3ccccc3c2nc2n1CCS2 | > 100 | > 100 | > 100 | > 100 | > 100 | > 100 | > 100 | 77.3 | > 100 | > 100 | > 100 | > 100 | > 100 | 47.8 | > 100 | > 100 | > 100 | 15.8 | > 100 | > 100
COc1ccc2[nH]c(-c3ccccc3)c(C=C(C#N)C#N)c2c1 | 36.1 | > 100 | > 100 | > 100 | > 100 | > 100 | > 100 | 21.2 | 9.14 | > 100 | 5.31 | 3.8 | 4.57 | 5.37 | 8.27 | 4.15 | 4.44 | 2.76 | 2.29 | 30
COc1cc(/C=C2\CCCC3C2=Nc2ccccc2NC3c2cc(OC)c(OC)c(OC)c2)cc(OC)c1OC (stereo not given) | 8.4 | 25 | 4.92 | > 100 | 71.5 | > 100 | 5.24 | > 100 | 52.7 | 6.77 | 1.86 | 2.9 | 1.9 | 2.69 | 2.02 | 3.65 | 2.02 | 21.9 | 3.75 | 1.3
COc1cc(OC)cc(-c2ccc(-c3ccc(C(=N)N)s3)s2)c1 | 3.47 | 2.62 | 3.55 | 2.93 | 3.42 | 3.22 | 3.51 | 2.5 | 3.15 | 3.36 | 1.81 | 0.8 | 1.77 | 1.42 | 1.67 | 1.65 | 1.52 | 1.22 | 1.36 | 1.77
Nc1c(S(=O)(=O)O)cc(Nc2cccc(S(N)(=O)=O)c2)c2c1C(=O)c1ccccc1C2=O | 71.9 | > 100 | > 100 | > 100 | > 100 | > 100 | > 100 | 69 | > 100 | > 100 |  |  |  |  |  |  |  |  |  | 
Cc1c2cnccc2c(C)c2c1c1cc(C(=O)O)ccc1n2C | 7.52 | 5.81 | 3.9 | 8.09 | 4.81 | 6.65 | 3.71 | 2.53 | > 26.5 | 4.84 | 0.642 | 1.51 | 0.943 | 1.68 | 0.937 | 1.16 | 1.36 | 1.1 | 1.51 | 1.12
NC(=O)c1ccc2nc(-c3ccc(C4(N)CCC4)cc3)c(-c3ccccc3)n2n1 | 27.7 | 32.3 | 33.9 | 20.1 | 30.1 | 15.4 | 23.7 | 5.21 | 15.8 | 29.7 | 11.6 | 14.3 | 16.7 | 0.183 | 13.1 | 1.26 | 10.9 | 0.0922 | 0.0186 | 13.2
COc1cc(-c2nc3ccccc3[nH]2)ccc1OCC(=O)N=Nc1c(O)[nH]c2ccc(Cl)cc12 | 3.44 | 1.86 | 3.48 | 3.06 | 3.34 | 3.35 | 3.22 | 2.64 | 3.75 | 3.78 | 1.79 | 0.547 | 1.48 | 1.48 | 1.66 | 1.81 | 1.81 | 1.19 | 1.66 | 1.91
Cc1coc2c1CC1OC1(C)CCC1OC1(C)C2 (stereo not given) | > 100 | > 100 | > 100 | > 100 | > 100 | > 100 | > 100 | > 100 | > 100 | > 100 |  |  |  |  |  |  |  |  |  | 
COc1ccc(C2=CC(c3ccc(Oc4ccnc5cc(Cl)ccc45)c(OC)c3)c3c(nc(OC)[nH]c3=O)N2)cc1 (stereo not given) | > 100 | > 100 | 47.2 | > 100 | > 100 | > 100 | > 100 | > 100 | > 100 | > 100 | 84.9 | 8.62 | 3.18 | 6.29 | 5.09 | 6.42 | 45.3 | 9.44 | 6.83 | 26.4
COc1ccc2c(c1)CC[C@@H]1[C@@H]2CC[C@]2(C)c3[nH]ncc3C[C@@H]12 | > 50 | > 50 | 27.4 | > 50 | > 50 | 27.5 | > 50 | > 50 | 33 | 29.4 | 24.7 | 11.5 | 10.3 | 18.2 | 19.6 | 12.6 | 32.1 | 21.9 | 10.9 | 11.3

From PubChem BioAssay (NCI)
